Measured values as given in the supplement of paper PMC10307832.

Tests used:
Test in all cases: relative viability (nuclei count vs DMSO), 5 days (fraction); higher = more cells survive
GSK126 + Alpelisib = compound: CC[C@H](C)N1C=C(C2=C(C=C(C=C21)C3=CN=C(C=C3)N4CCNCC4)C(=O)NCC5=C(C=C(NC5=O)C)C)C [GSK126] + Cc1nc(NC(=O)N2CCC[C@H]2C(N)=O)sc1-c1ccnc(C(C)(C)C(F)(F)F)c1 [Alpelisib] (partner 2 µM)
Procedure, shortened: (§1)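 Lung cancer cell lines in 1536-well plates were dosed by pin tool the day after seeding, either with one drug alone or with a fixed anchor-drug dose plus five library-drug doses (not always all listed) in √10 steps. After 5 days, cells were fixed and their nuclei stained in one step (final 0.05% Triton X-100, 1% formaldehyde, 1 ug/ml Hoechst), then counted on 4× images. Relative viability is the nuclei count in treated wells divided by that in vehicle wells. Values are medians of duplicate plates.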

GSK126 + Decitabine = compound: CC[C@H](C)N1C=C(C2=C(C=C(C=C21)C3=CN=C(C=C3)N4CCNCC4)C(=O)NCC5=C(C=C(NC5=O)C)C)C [GSK126] + Nc1ncn([C@H]2C[C@H](O)[C@@H](CO)O2)c(=O)n1 [Decitabine] (partner 2 µM)
Procedure, shortened: as §1

MLN4924 + Vorinostat = compound: NS(=O)(=O)OC[C@@H]1C[C@@H](n2ccc3c(N[C@H]4CCc5ccccc54)ncnc32)C[C@@H]1O [MLN4924] + O=C(CCCCCCC(=O)Nc1ccccc1)NO [Vorinostat] (partner 1 µM)
Procedure, shortened: as §1

MLN4924 + Palbociclib = compound: NS(=O)(=O)OC[C@@H]1C[C@@H](n2ccc3c(N[C@H]4CCc5ccccc54)ncnc32)C[C@@H]1O [MLN4924] + CC(=O)c1c(C)c2cnc(Nc3ccc(N4CCNCC4)cn3)nc2n(C2CCCC2)c1=O [Palbociclib] (partner 0.5 µM)
Procedure, shortened: as §1

With A-427 the relative viability (GSK126 + Alpelisib; first compound 0.08 µM) was 1.12, the relative viability (GSK126 + Alpelisib; first compound 0.253 µM) was 1.07 and the relative viability (GSK126 + Alpelisib; first compound 0.8 µM) was 1.05. It also gave a relative viability (GSK126 + Alpelisib; first compound 2.53 µM) of 1.16, a relative viability (GSK126 + Alpelisib; first compound 8 µM) of 1.06 and a relative viability (GSK126 + Decitabine; first compound 0.08 µM) of 0.586. The relative viability (GSK126 + Decitabine; first compound 0.253 µM) was 0.63, the relative viability (GSK126 + Decitabine; first compound 0.8 µM) was 0.565 and the relative viability (GSK126 + Decitabine; first compound 2.53 µM) was 0.559. For the same cell line, the relative viability (GSK126 + Decitabine; first compound 8 µM) was 0.568, the relative viability (MLN4924 + Vorinostat; first compound 0.04 µM) was 0.546 and the relative viability (MLN4924 + Vorinostat; first compound 0.1265 µM) was 0.403. It also gave a relative viability (MLN4924 + Vorinostat; first compound 0.4 µM) of 0.309, a relative viability (MLN4924 + Vorinostat; first compound 1.265 µM) of 0.231 and a relative viability (MLN4924 + Vorinostat; first compound 4 µM) of 0.237. For the same cell line, the relative viability (MLN4924 + Palbociclib; first compound 0.04 µM) was 0.381, the relative viability (MLN4924 + Palbociclib; first compound 0.1265 µM) was 0.339 and the relative viability (MLN4924 + Palbociclib; first compound 0.4 µM) was 0.321. The relative viability (MLN4924 + Palbociclib; first compound 1.265 µM) was 0.29 and the relative viability (MLN4924 + Palbociclib; first compound 4 µM) was 0.282.
Work on SK-MES-1 yielded a relative viability (GSK126 + Alpelisib; first compound 0.08 µM) of 0.901, a relative viability (GSK126 + Alpelisib; first compound 0.253 µM) of 0.878 and a relative viability (GSK126 + Alpelisib; first compound 0.8 µM) of 0.92. For the same cell line, the relative viability (GSK126 + Alpelisib; first compound 2.53 µM) was 0.868, the relative viability (GSK126 + Alpelisib; first compound 8 µM) was 0.996 and the relative viability (GSK126 + Decitabine; first compound 0.08 µM) was 0.41. The relative viability (GSK126 + Decitabine; first compound 0.253 µM) was 0.463, the relative viability (GSK126 + Decitabine; first compound 0.8 µM) was 0.418 and the relative viability (GSK126 + Decitabine; first compound 2.53 µM) was 0.391. It also gave a relative viability (GSK126 + Decitabine; first compound 8 µM) of 0.431, a relative viability (MLN4924 + Vorinostat; first compound 0.04 µM) of 1.14 and a relative viability (MLN4924 + Vorinostat; first compound 0.1265 µM) of 1.02. It also gave a relative viability (MLN4924 + Vorinostat; first compound 0.4 µM) of 0.351, a relative viability (MLN4924 + Vorinostat; first compound 1.265 µM) of 0.162 and a relative viability (MLN4924 + Vorinostat; first compound 4 µM) of 0.216. It also gave a relative viability (MLN4924 + Palbociclib; first compound 0.04 µM) of 0.294, a relative viability (MLN4924 + Palbociclib; first compound 0.1265 µM) of 0.207 and a relative viability (MLN4924 + Palbociclib; first compound 0.4 µM) of 0.225. The relative viability (MLN4924 + Palbociclib; first compound 1.265 µM) was 0.128 and the relative viability (MLN4924 + Palbociclib; first compound 4 µM) was 0.203.
NCI-H460 gave a relative viability (GSK126 + Alpelisib; first compound 0.08 µM) of 0.673, a relative viability (GSK126 + Alpelisib; first compound 0.253 µM) of 0.486 and a relative viability (GSK126 + Alpelisib; first compound 0.8 µM) of 0.369. For the same cell line, the relative viability (GSK126 + Alpelisib; first compound 2.53 µM) was 0.504, the relative viability (GSK126 + Alpelisib; first compound 8 µM) was 0.431 and the relative viability (GSK126 + Decitabine; first compound 0.08 µM) was 0.605. The relative viability (GSK126 + Decitabine; first compound 0.253 µM) was 0.495, the relative viability (GSK126 + Decitabine; first compound 0.8 µM) was 0.468 and the relative viability (GSK126 + Decitabine; first compound 2.53 µM) was 0.37. The relative viability (GSK126 + Decitabine; first compound 8 µM) was 0.446, the relative viability (MLN4924 + Vorinostat; first compound 0.04 µM) was 0.679 and the relative viability (MLN4924 + Vorinostat; first compound 0.1265 µM) was 0.827. It also gave a relative viability (MLN4924 + Vorinostat; first compound 0.4 µM) of 0.797, a relative viability (MLN4924 + Vorinostat; first compound 1.265 µM) of 0.115 and a relative viability (MLN4924 + Vorinostat; first compound 4 µM) of 0.0271. For the same cell line, the relative viability (MLN4924 + Palbociclib; first compound 0.04 µM) was 0.189, the relative viability (MLN4924 + Palbociclib; first compound 0.1265 µM) was 0.121 and the relative viability (MLN4924 + Palbociclib; first compound 0.4 µM) was 0.0985. The relative viability (MLN4924 + Palbociclib; first compound 1.265 µM) was 0.0213 and the relative viability (MLN4924 + Palbociclib; first compound 4 µM) was 0.0283.
ABC-1 gave a relative viability (GSK126 + Alpelisib; first compound 0.08 µM) of 1.19, a relative viability (GSK126 + Alpelisib; first compound 0.253 µM) of 1.31 and a relative viability (GSK126 + Alpelisib; first compound 0.8 µM) of 1.02. It also gave a relative viability (GSK126 + Alpelisib; first compound 2.53 µM) of 1.11, a relative viability (GSK126 + Alpelisib; first compound 8 µM) of 1.01 and a relative viability (GSK126 + Decitabine; first compound 0.08 µM) of 1.14. The relative viability (GSK126 + Decitabine; first compound 0.253 µM) was 0.907, the relative viability (GSK126 + Decitabine; first compound 0.8 µM) was 0.885 and the relative viability (GSK126 + Decitabine; first compound 2.53 µM) was 1. For the same cell line, the relative viability (GSK126 + Decitabine; first compound 8 µM) was 1, the relative viability (MLN4924 + Vorinostat; first compound 0.04 µM) was 0.946 and the relative viability (MLN4924 + Vorinostat; first compound 0.1265 µM) was 1.15. The relative viability (MLN4924 + Vorinostat; first compound 0.4 µM) was 0.572, the relative viability (MLN4924 + Vorinostat; first compound 1.265 µM) was 0.279 and the relative viability (MLN4924 + Vorinostat; first compound 4 µM) was 0.363. The relative viability (MLN4924 + Palbociclib; first compound 0.04 µM) was 1, the relative viability (MLN4924 + Palbociclib; first compound 0.1265 µM) was 1.02 and the relative viability (MLN4924 + Palbociclib; first compound 0.4 µM) was 0.695. The relative viability (MLN4924 + Palbociclib; first compound 1.265 µM) was 0.316 and the relative viability (MLN4924 + Palbociclib; first compound 4 µM) was 0.498.
In the case of LK-2, the relative viability (GSK126 + Alpelisib; first compound 0.08 µM) is reported as 1.09, the relative viability (GSK126 + Alpelisib; first compound 0.253 µM) is reported as 0.993 and the relative viability (GSK126 + Alpelisib; first compound 0.8 µM) is reported as 0.734. It also gave a relative viability (GSK126 + Alpelisib; first compound 2.53 µM) of 1.13, a relative viability (GSK126 + Alpelisib; first compound 8 µM) of 0.876 and a relative viability (GSK126 + Decitabine; first compound 0.08 µM) of 0.42. It also gave a relative viability (GSK126 + Decitabine; first compound 0.253 µM) of 0.239, a relative viability (GSK126 + Decitabine; first compound 0.8 µM) of 0.333 and a relative viability (GSK126 + Decitabine; first compound 2.53 µM) of 0.273. For the same cell line, the relative viability (GSK126 + Decitabine; first compound 8 µM) was 0.31, the relative viability (MLN4924 + Vorinostat; first compound 0.04 µM) was 0.271 and the relative viability (MLN4924 + Vorinostat; first compound 0.1265 µM) was 0.277. For the same cell line, the relative viability (MLN4924 + Vorinostat; first compound 0.4 µM) was 0.227, the relative viability (MLN4924 + Vorinostat; first compound 1.265 µM) was 0.509 and the relative viability (MLN4924 + Vorinostat; first compound 4 µM) was 0.198. For the same cell line, the relative viability (MLN4924 + Palbociclib; first compound 0.04 µM) was 0.508, the relative viability (MLN4924 + Palbociclib; first compound 0.1265 µM) was 0.342 and the relative viability (MLN4924 + Palbociclib; first compound 0.4 µM) was 0.284. It also gave a relative viability (MLN4924 + Palbociclib; first compound 1.265 µM) of 0.138 and a relative viability (MLN4924 + Palbociclib; first compound 4 µM) of 0.161.
In the case of NCI-H2085, the relative viability (GSK126 + Alpelisib; first compound 0.08 µM) is reported as 1.07, the relative viability (GSK126 + Alpelisib; first compound 0.253 µM) is reported as 0.912 and the relative viability (GSK126 + Alpelisib; first compound 0.8 µM) is reported as 1. For the same cell line, the relative viability (GSK126 + Alpelisib; first compound 2.53 µM) was 0.906, the relative viability (GSK126 + Alpelisib; first compound 8 µM) was 0.995 and the relative viability (GSK126 + Decitabine; first compound 0.08 µM) was 0.551. The relative viability (GSK126 + Decitabine; first compound 0.253 µM) was 0.511, the relative viability (GSK126 + Decitabine; first compound 0.8 µM) was 0.588 and the relative viability (GSK126 + Decitabine; first compound 2.53 µM) was 0.615. It also gave a relative viability (GSK126 + Decitabine; first compound 8 µM) of 0.518, a relative viability (MLN4924 + Vorinostat; first compound 0.04 µM) of 0.769 and a relative viability (MLN4924 + Vorinostat; first compound 0.1265 µM) of 0.829. The relative viability (MLN4924 + Vorinostat; first compound 0.4 µM) was 0.837, the relative viability (MLN4924 + Vorinostat; first compound 1.265 µM) was 0.635 and the relative viability (MLN4924 + Vorinostat; first compound 4 µM) was 0.45. The relative viability (MLN4924 + Palbociclib; first compound 0.04 µM) was 0.489, the relative viability (MLN4924 + Palbociclib; first compound 0.1265 µM) was 0.505 and the relative viability (MLN4924 + Palbociclib; first compound 0.4 µM) was 0.587. The relative viability (MLN4924 + Palbociclib; first compound 1.265 µM) was 0.556 and the relative viability (MLN4924 + Palbociclib; first compound 4 µM) was 0.416.
In the case of NCI-H650, the relative viability (GSK126 + Alpelisib; first compound 0.08 µM) is reported as 1.24, the relative viability (GSK126 + Alpelisib; first compound 0.253 µM) is reported as 1.11 and the relative viability (GSK126 + Alpelisib; first compound 0.8 µM) is reported as 1.17. For the same cell line, the relative viability (GSK126 + Alpelisib; first compound 2.53 µM) was 1.23, the relative viability (GSK126 + Alpelisib; first compound 8 µM) was 0.993 and the relative viability (GSK126 + Decitabine; first compound 0.08 µM) was 0.33. The relative viability (GSK126 + Decitabine; first compound 0.253 µM) was 0.293, the relative viability (GSK126 + Decitabine; first compound 0.8 µM) was 0.311 and the relative viability (GSK126 + Decitabine; first compound 2.53 µM) was 0.299. It also gave a relative viability (GSK126 + Decitabine; first compound 8 µM) of 0.322, a relative viability (MLN4924 + Vorinostat; first compound 0.04 µM) of 0.446 and a relative viability (MLN4924 + Vorinostat; first compound 0.1265 µM) of 0.306. It also gave a relative viability (MLN4924 + Vorinostat; first compound 0.4 µM) of 0.169, a relative viability (MLN4924 + Vorinostat; first compound 1.265 µM) of 0.126 and a relative viability (MLN4924 + Vorinostat; first compound 4 µM) of 0.143. It also gave a relative viability (MLN4924 + Palbociclib; first compound 0.04 µM) of 0.307, a relative viability (MLN4924 + Palbociclib; first compound 0.1265 µM) of 0.182 and a relative viability (MLN4924 + Palbociclib; first compound 0.4 µM) of 0.159. For the same cell line, the relative viability (MLN4924 + Palbociclib; first compound 1.265 µM) was 0.136 and the relative viability (MLN4924 + Palbociclib; first compound 4 µM) was 0.166.
